Tubule formation data for one substance are collected here from patent publication US6475790B2, “Assay for screening agents that alter angiogenesis” (Biocure Limited, priority 1997, dated 2002).

Entries after “also recorded” stand apart in the source; their conditions may differ.

For the assay, the system named is co-culture of Human Umbilical Vein Endothelial Cells (HUVEC) with Human Adult Dermal Fibroblasts. Description: multicellular in vitro angiogenesis (tubule) assay, dual culture of HUVEC and fibroblasts. It is filed as cell-based. The conditions noted are these: VEGF 10 ngml^-1 added at the start and at each medium change; 14 days; von Willebrand factor immunoassay. The text has this: The assay system involves co-culture of Human Umbilical Vein Endothelial Cells (HUVEC) with Human Adult Dermal Fibroblasts. Under the conditions provided the cells form a series of anastomosed tubules.
The Human Umbilical Vein Endothelial Cells (HUVEC) are commercially available from suitable outlets and in this case are bought in cryopreserved form. Prior to employment in the tubule assay, the cells are routinely passed and cultured in any suitable commercially available Endothelial Growth Medium, EGM, containing 2% foetal calf serum. The HUVEC are used at passes 2 to 6 in the assay.
The Human Adult Dermal Fibroblasts are cultured from skin samples which may be obtained from local hospitals. […]
The tissue culture treated vessels to be used in the assay are equilibrated by pre-incubation with EGM, plus and minus treatments, for a period of 30 minutes at 37° C., 5% CO2 humidified atmosphere. […] The cells are resuspended in EGM and counted. […] The techniques and materials involved in culturing endothelial cells are well known to persons of skill in the art, and are readily available from standard texts. […]
Visualization of the tubules is accomplished most readily by an immunoassay that targets a cell marker on one or both of the cells being cultured. […]

With VEGF, the tubule formation entry was “marked increase; also recorded: much enhanced”.
